Test results taken from the supplement of paper PMC10307832.

Columns and labels:
Experiment in all cases: relative viability (nuclei count vs DMSO), 5 days (fraction); higher = more cells survive
[1] = compound: COc1ccc(-c2ccc3c(N4CCOC[C@@H]4C)nc(N4CCOC[C@@H]4C)nc3n2)cc1CO [AZD8055] + CC1(C)CCC(c2ccc(Cl)cc2)=C(CN2CCN(c3ccc(C(=O)NS(=O)(=O)c4ccc(N[C@H](CCN5CCOCC5)CSc5ccccc5)c(S(=O)(=O)C(F)(F)F)c4)cc3)CC2)C1 [Navitoclax] (partner 0.5 µM)
Outline: (§1)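 Relative viability divides the nuclei count in treated wells by that in vehicle wells. Lung cancer cell lines were seeded in 1536-well plates, dosed by pin tool the next day, and fixed and stained after 5 days in one step with final 0.05% Triton X-100, 1% formaldehyde and 1 ug/ml Hoechst. Dosing was a single drug or a fixed anchor-drug dose plus five library-drug doses (not always all listed) in √10 steps, and values are medians of duplicate plates imaged at 4×.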

[2] = compound: COc1ccc(-c2ccc3c(N4CCOC[C@@H]4C)nc(N4CCOC[C@@H]4C)nc3n2)cc1CO [AZD8055] + C[C@@H](Oc1cc(-c2cnn(C3CCNCC3)c2)cnc1N)c1c(Cl)ccc(F)c1Cl [Crizotinib] (partner 1 µM)
Outline: as §1

[3] = compound: COc1ccc(-c2ccc3c(N4CCOC[C@@H]4C)nc(N4CCOC[C@@H]4C)nc3n2)cc1CO [AZD8055] + Cc1nc(Nc2ncc(C(=O)Nc3c(C)cccc3Cl)s2)cc(N2CCN(CCO)CC2)n1 [Dasatinib] (partner 0.075 µM)
Outline: as §1

[4] = compound: COc1ccc(-c2ccc3c(N4CCOC[C@@H]4C)nc(N4CCOC[C@@H]4C)nc3n2)cc1CO [AZD8055] + O=C(CCCCCCC(=O)Nc1ccccc1)NO [Vorinostat] (partner 1 µM)
Outline: as §1

Cell Line	relative viability ([1]; first compound 0.01 µM)	relative viability ([1]; first compound 0.03162 µM)	relative viability ([1]; first compound 0.1 µM)	relative viability ([1]; first compound 0.3162 µM)	relative viability ([1]; first compound 1 µM)	relative viability ([2]; first compound 0.01 µM)	relative viability ([2]; first compound 0.03162 µM)	relative viability ([2]; first compound 0.1 µM)	relative viability ([2]; first compound 0.3162 µM)	relative viability ([2]; first compound 1 µM)	relative viability ([3]; first compound 0.01 µM)	relative viability ([3]; first compound 0.03162 µM)	relative viability ([3]; first compound 0.1 µM)	relative viability ([3]; first compound 0.3162 µM)	relative viability ([3]; first compound 1 µM)	relative viability ([4]; first compound 0.01 µM)	relative viability ([4]; first compound 0.03162 µM)	relative viability ([4]; first compound 0.1 µM)	relative viability ([4]; first compound 0.3162 µM)	relative viability ([4]; first compound 1 µM)
H3255	0.54	0.443	0.324	0.176	0.172	1.3	0.818	0.718	0.407	0.301	0.364	0.429	0.3	0.323	0.306	0.967	0.746	0.747	0.513	0.357
EPLC-272H	1.1	0.842	0.556	0.378	0.35	0.865	0.739	0.498	0.494	0.37	0.333	0.221	0.173	0.109	0.128	0.331	0.401	0.343	0.144	0.261
PC-3 [JPC-3]	0.83	0.847	0.775	0.575	0.421	1.06	1.05	1.01	0.712	0.53	1.01	0.937	0.946	0.641	0.444	0.849	0.902	0.631	0.534	0.495
NCI-H1793	0.363	0.288	0.205	0.229	0.163						0.356	0.178	0.192	0.148	0.11	0.567	0.387	0.271	0.188	0.224
EKVX	1.08	1.04	0.797	0.512	0.413	1.21	0.943	0.81	0.524	0.393	0.443	0.615	0.419	0.317	0.263	0.68	0.729	0.519	0.422	0.366
ChaGo-K-1	1.09	1.08	1.3	0.655	0.44	1.28	1.21	1.07	1.18	0.887	0.614	0.537	0.433	0.375	0.352	0.769	0.673	0.741	0.631	0.541
NCI-H23	0.879	0.847	0.677	0.318	0.253	0.562	0.507	0.41	0.295	0.265	0.874	0.732	0.572	0.276	0.27	0.44	0.457	0.449	0.235	0.251
EMC-BAC-2	1.22	1.13	1.05	0.446	0.37	0.764	0.706	0.612	0.337	0.344	0.32	0.25	0.234	0.186	0.186	0.445	0.342	0.303	0.263	0.287
LOU-NH91	0.708	0.642	0.587	0.466	0.437	0.71	0.713	0.673	0.592	0.531	0.545	0.6	0.415	0.431	0.406	0.872	0.95	0.63	0.596	0.57
LU99A	0.69	0.517	0.232	0.164	0.191	0.517	0.329	0.234	0.233	0.232	0.432	0.324	0.314	0.173	0.268	0.385	0.259	0.225	0.186	0.153
NCI-H1395	1.4	0.97	0.797	0.654	0.498						0.405	0.376	0.37	0.31	0.292	0.683	0.448	0.621	0.422	0.461
NCI-H460	1.19	0.892	0.523	0.121	0.0653	1.05	0.654	0.818	0.106	0.0777	0.554	0.365	0.213	0.0862	0.0669	1.02	0.629	0.498	0.0504	0.0551
201T	1.22	1.23	1.21	1.03	0.819	1.09	1.02	0.997	0.772	0.721	0.537	0.564	0.501	0.398	0.416	0.974	0.943	0.824	0.679	0.575
NCI-H1944	1.05	0.929	0.851	0.457	0.316	1.09	0.918	0.973	0.427	0.343	0.187	0.174	0.185	0.166	0.152	0.518	0.431	0.422	0.223	0.207
NCI-H2405	0.939	0.93	0.708	0.392	0.291	0.804	0.815	0.681	0.516	0.311	0.225	0.204	0.215	0.188	0.183	1.19	0.918	0.796	0.36	0.373
NCI-H1703	0.944	0.702	0.517	0.292	0.337	0.635	0.489	0.508	0.4	0.222										
NCI-H1755	0.953	0.71	0.687	0.296	0.307	0.824	0.762	0.652	0.397	0.393	0.414	0.32	0.262	0.263	0.249	0.64	0.613	0.57	0.423	0.366
NCI-H2087	0.911	0.951	0.703	0.421	0.309	1.21	0.972	0.801	0.415	0.485	0.957	0.637	0.792	0.292	0.216	0.679	1.03	0.734	0.152	0.223
NCI-H2228	0.804	0.86	0.24	0.18	0.244	0.39	0.229	0.286	0.173	0.302	0.429	0.358	0.136	0.144	0.171	0.918	0.541	0.416	0.271	0.242

Cell Line	relative viability ([1]; first compound 0.01 µM)	relative viability ([1]; first compound 0.03162 µM)	relative viability ([1]; first compound 0.1 µM)	relative viability ([1]; first compound 0.3162 µM)	relative viability ([1]; first compound 1 µM)	relative viability ([2]; first compound 0.01 µM)	relative viability ([2]; first compound 0.03162 µM)	relative viability ([2]; first compound 0.1 µM)	relative viability ([2]; first compound 0.3162 µM)	relative viability ([2]; first compound 1 µM)	relative viability ([3]; first compound 0.01 µM)	relative viability ([3]; first compound 0.03162 µM)	relative viability ([3]; first compound 0.1 µM)	relative viability ([3]; first compound 0.3162 µM)	relative viability ([3]; first compound 1 µM)	relative viability ([4]; first compound 0.01 µM)	relative viability ([4]; first compound 0.03162 µM)	relative viability ([4]; first compound 0.1 µM)	relative viability ([4]; first compound 0.3162 µM)	relative viability ([4]; first compound 1 µM)
NCI-H727	0.432	0.397	0.324	0.168	0.215	0.994	0.896	0.536	0.292	0.279	0.444	0.464	0.41	0.28	0.312	1.3	1.12	1.18	0.869	0.778
NCI-H650						0.763	0.712	0.626	0.395	0.292	0.469	0.393	0.36	0.292	0.231	0.496	0.352	0.478	0.231	0.146
NCI-H520	0.928	0.612	0.359	0.21	0.176	0.58	0.53	0.37	0.195	0.194	0.142	0.13	0.15	0.14	0.171	0.621	0.406	0.242	0.188	0.154
EBC-1	0.312	0.187	0.213	0.182	0.205	0.155	0.204	0.197	0.221	0.219										
NCI-H661						1.06	1.1	1.07	0.634	0.567	0.845	0.867	0.633	0.368	0.305	0.866	0.791	0.707	0.465	0.4
NCI-H1299	1.05	1.08	1.02	0.939	0.67	0.998	0.995	0.968	0.891	0.51										
LK-2	0.797	0.584	0.441	0.216	0.241	0.231	0.188	0.267	0.205	0.211	0.215	0.188	0.175	0.185	0.185	0.3	0.172	0.271	0.167	0.157
NCI-H1993	0.785	0.681	0.649	0.665	0.56	0.819	0.688	0.59	0.588	0.609	0.528	0.448	0.505	0.524	0.542	0.55	0.474	0.358	0.287	0.407
NCI-H838	0.985	0.627	0.347	0.358	0.305	0.969	0.745	0.476	0.293	0.307	0.269	0.264	0.262	0.231	0.217	0.695	0.577	0.447	0.428	0.346
NCI-H1648																0.501	0.451	0.293	0.287	0.273
LCLC-103H						1.04	0.918	0.719	0.807	0.484	0.412	0.315	0.379	0.2	0.211	0.825	0.765	0.619	0.445	0.437
SW 900											0.622	0.691	0.535	0.177	0.184	0.461	0.499	0.538	0.325	0.265
IA-LM	0.566	0.495	0.291	0.109	0.105	0.923	0.472	0.347	0.0713	0.105						0.814	0.758	0.524	0.172	0.127
NCI-H1563						0.769	0.81	0.697	0.6	0.679	0.458	0.458	0.443	0.405	0.384					
HCC-44	0.985	0.891	0.617	0.41	0.448	0.879	0.825	0.662	0.364	0.315						1.12	1.22	1.07	0.735	0.803
NCI-H358						0.678	0.934	0.69	0.442	0.211	0.169	0.173	0.0957	0.0735	0.0998	0.775	0.701	0.624	0.207	0.121
ABC-1						1.09	1.04	0.812	0.602	0.479	0.692	0.548	0.526	0.219	0.3	1.07	1.15	1.12	0.466	0.533
NCI-H522											0.864	0.831	0.907	0.625	0.535	0.898	0.731	0.876	0.666	0.499
NCI-H1792	0.89	0.518	0.51	0.13	0.086	0.927	0.82	0.82	0.173	0.157	0.844	0.667	0.583	0.321	0.237					
